Our source for the IC50 values is patent publication US9040545B2, “Heterocyclyl pyrazolopyrimidine analogues as selective JAK inhibitors” (Cellzome Limited, priority 2010, dated 2015).

Molecules are shown by their SMILES.

One assay addresses T1, JAK2 (Homo sapiens, UniProt O60674).
T1 construct: endogenous in cells; host or cells: mixed Molt4/Ramos lysate (1:2)
The experiment in a line: Kinobeads assay, JAK2. The assay is classed as binding. The conditions noted are these: mixed Molt4/Ramos lysate, read-out: Inhibition values (IC50) JAK2. In outline:
(§1)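 Competition binding in mixed Molt4/Ramos cell lysate (1:2, 10 mg/mL protein) with Kinobeads carrying immobilized aminopyrido-pyrimidine ligand, 3 h in cold room; 9-step 1:3 compound dilution series from 5 mM DMSO stock. Bead-bound JAK2/JAK3 eluted and quantified by antibody dot blot with infrared detection; IC50 from dose-response curves.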

The next assay has as its target T2, JAK3 (Homo sapiens, UniProt P52333).
T2 construct: endogenous in cells; host or cells: mixed Molt4/Ramos lysate (1:2)
T2 sequence (P52333 1-1124): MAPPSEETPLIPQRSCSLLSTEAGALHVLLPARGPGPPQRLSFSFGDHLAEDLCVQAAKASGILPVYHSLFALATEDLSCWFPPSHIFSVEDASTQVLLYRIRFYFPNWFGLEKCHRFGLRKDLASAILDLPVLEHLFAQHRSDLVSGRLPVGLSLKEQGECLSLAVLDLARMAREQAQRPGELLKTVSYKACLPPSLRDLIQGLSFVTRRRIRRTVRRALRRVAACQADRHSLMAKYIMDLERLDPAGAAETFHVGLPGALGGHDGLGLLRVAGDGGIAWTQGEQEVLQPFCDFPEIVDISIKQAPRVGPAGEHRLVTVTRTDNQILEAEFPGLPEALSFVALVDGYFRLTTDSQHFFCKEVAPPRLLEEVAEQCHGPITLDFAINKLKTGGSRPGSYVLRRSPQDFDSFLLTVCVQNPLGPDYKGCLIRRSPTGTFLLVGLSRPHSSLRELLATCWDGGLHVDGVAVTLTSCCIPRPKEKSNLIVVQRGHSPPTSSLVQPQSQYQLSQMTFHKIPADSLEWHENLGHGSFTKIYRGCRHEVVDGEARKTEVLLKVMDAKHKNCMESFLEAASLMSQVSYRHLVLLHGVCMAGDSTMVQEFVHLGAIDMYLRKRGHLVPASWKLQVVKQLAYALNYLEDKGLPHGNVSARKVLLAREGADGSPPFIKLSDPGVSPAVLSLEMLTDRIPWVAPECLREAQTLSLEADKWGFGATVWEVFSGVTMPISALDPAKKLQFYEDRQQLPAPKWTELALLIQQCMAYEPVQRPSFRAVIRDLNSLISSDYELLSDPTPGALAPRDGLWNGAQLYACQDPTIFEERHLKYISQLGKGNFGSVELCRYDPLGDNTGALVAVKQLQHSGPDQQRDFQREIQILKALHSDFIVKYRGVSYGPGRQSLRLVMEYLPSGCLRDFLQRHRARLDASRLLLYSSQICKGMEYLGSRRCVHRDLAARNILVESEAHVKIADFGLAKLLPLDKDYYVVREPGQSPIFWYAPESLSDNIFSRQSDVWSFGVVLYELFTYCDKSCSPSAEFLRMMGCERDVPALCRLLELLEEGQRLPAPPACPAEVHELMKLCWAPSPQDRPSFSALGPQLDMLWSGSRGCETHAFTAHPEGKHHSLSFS
The experiment in a line: Kinobeads assay, JAK3. The class given is binding. The conditions noted are these: mixed Molt4/Ramos lysate, read-out: Inhibition values (IC50) JAK3. Summed up:
as §1

T1 sequence (O60674 whole entry): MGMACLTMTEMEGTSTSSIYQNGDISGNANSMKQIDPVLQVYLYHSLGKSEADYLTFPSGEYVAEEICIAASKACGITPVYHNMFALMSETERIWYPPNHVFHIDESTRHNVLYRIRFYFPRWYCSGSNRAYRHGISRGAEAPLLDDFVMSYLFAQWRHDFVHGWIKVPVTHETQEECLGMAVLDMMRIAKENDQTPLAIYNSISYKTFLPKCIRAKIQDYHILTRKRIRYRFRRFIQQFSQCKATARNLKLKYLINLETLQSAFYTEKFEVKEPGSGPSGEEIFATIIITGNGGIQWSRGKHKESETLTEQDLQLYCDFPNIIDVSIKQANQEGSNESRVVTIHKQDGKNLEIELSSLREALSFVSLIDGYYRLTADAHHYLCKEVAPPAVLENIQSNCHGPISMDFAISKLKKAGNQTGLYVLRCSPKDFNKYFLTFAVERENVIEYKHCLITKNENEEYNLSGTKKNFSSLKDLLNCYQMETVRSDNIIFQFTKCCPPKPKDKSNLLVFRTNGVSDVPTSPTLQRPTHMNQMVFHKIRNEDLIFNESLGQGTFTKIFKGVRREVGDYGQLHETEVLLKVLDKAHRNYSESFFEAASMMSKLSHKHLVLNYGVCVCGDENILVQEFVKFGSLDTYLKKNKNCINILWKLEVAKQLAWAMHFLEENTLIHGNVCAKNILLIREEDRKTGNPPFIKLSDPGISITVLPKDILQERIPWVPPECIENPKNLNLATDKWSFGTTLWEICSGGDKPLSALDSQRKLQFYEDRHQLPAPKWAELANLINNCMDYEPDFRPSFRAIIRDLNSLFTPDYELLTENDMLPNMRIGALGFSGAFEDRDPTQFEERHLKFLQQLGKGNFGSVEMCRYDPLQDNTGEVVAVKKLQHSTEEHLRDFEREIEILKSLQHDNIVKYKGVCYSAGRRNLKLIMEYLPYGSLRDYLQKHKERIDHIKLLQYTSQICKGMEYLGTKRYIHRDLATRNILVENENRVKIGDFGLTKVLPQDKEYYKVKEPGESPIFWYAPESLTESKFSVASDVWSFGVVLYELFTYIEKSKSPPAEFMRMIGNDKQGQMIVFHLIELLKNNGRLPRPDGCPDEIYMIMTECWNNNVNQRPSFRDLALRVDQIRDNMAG

The IC50 is the midpoint of a concentration-inhibition curve. On to `O=C1COCCN1c1cc(F)c(F)c(Cn2ncc3cnc(Nc4cnn(CCO)c4)nc32)c1F` [Example 62, 4-(2,4,5-Trifluoro-3-((6-((1-(2-hydroxyethyl)-1H-pyrazol-4-yl)amino)-1H-pyrazolo[3,4-d]pyrimidin-1-yl)methyl)phenyl)morpholin-3-one], for which the IC50 at JAK2 was 1000 to 10000 nM; on JAK3, less than 100 nM.

Consider `Cn1cc(Nc2ncc3cnn(Cc4c(F)c(F)cc(N5CCNCC5)c4F)c3n2)cn1` [Example 66, N-(1-Methyl-1H-pyrazol-4-yl)-1-(2,3,6-trifluoro-5-(piperazin-1-yl)benzyl)-1H-pyrazolo[3,4-d]pyrimidin-6-amine], for which the IC50 is 1000 to 10000 nM on JAK2 and less than 100 nM at JAK3.

As for `CN(C)CCCn1cc(Nc2ncc3cnn(Cc4c(F)c(F)cc(N5CCOCC5=O)c4F)c3n2)cn1` [Example 70, 4-(3-((6-((1-(3-(Dimethylamino)propyl)-1H-pyrazol-4-yl)amino)-1H-pyrazolo[3,4-d]pyrimidin-1-yl)methyl)-2,4,5-trifluorophenyl)morpholin-3-one], the figures for the IC50 on JAK2 and on JAK3 were 1000 to 10000 nM and less than 100 nM, respectively.

Regarding `Cn1cc(Nc2ncc3cnn(Cc4cc(F)cc(C(=O)N5CCOCC5)c4)c3n2)cn1` [Example 79, (3-Fluoro-5-((6-((1-methyl-1H-pyrazol-4-yl)amino)-1H-pyrazolo[3,4-d]pyrimidin-1-yl)methyl)phenyl)(morpholino)methanone], the IC50 is 100 to 1000 nM at JAK2 and less than 100 nM at JAK3.

`O=C1COCCN1c1cc(F)cc(Cn2ncc3cnc(Nc4cnn(CCO)c4)nc32)c1` [Example 58, 4-(3-Fluoro-5-((6-((1-(2-hydroxyethyl)-1H-pyrazol-4-yl)amino)-1H-pyrazolo[3,4-d]pyrimidin-1-yl)methyl)phenyl)morpholin-3-one]: the IC50 is 1000 to 10000 nM on JAK2 and less than 100 nM at JAK3.

In the case of `Cn1cc(Nc2ncc3cnn(Cc4cc(F)cc(N5CCOCC5=O)c4F)c3n2)cn1` [Example 73, 4-(2,5-Difluoro-3-((6-((1-methyl-1H-pyrazol-4-yl)amino)-1H-pyrazolo[3,4-d]pyrimidin-1-yl)methyl)phenyl)morpholin-3-one], the IC50 at JAK2 is 100 to 1000 nM; on JAK3, less than 100 nM.

Turning to `Cn1cc(Nc2ncc3cnn(Cc4cc(N5CCOCC5=O)cc(F)c4F)c3n2)cn1` [Example 53, 4-(3,4-Difluoro-5-((6-((1-methyl-1H-pyrazol-4-yl)amino)-1H-pyrazolo[3,4-d]pyrimidin-1-yl)methyl)phenyl)morpholin-3-one], the IC50 at JAK2 is no less than 10000 nM; on JAK3 it was less than 100 nM.

In the case of `OCCn1cc(Nc2ncc3cnn(Cc4cc(F)cc(N5CCOCC5)c4)c3n2)cn1` [Example 51, 2-(4-((1-(3-Fluoro-5-morpholinobenzyl)-1H-pyrazolo[3,4-d]pyrimidin-6-yl)amino)-1H-pyrazol-1-yl)ethanol], the IC50 at JAK2 was 1000 to 10000 nM; at JAK3, less than 100 nM.

`OCCn1cc(Nc2ncc3cnn(Cc4cc(N5CCOCC5)ccc4F)c3n2)cn1` [Example 44, 2-(4-((1-(2-Fluoro-5-morpholinobenzyl)-1H-pyrazolo[3,4-d]pyrimidin-6-yl)amino)-1H-pyrazol-1-yl)ethanol]: the IC50 at JAK2 is no less than 10000 nM; at JAK3 it was less than 100 nM.

On to `O=C1CNCCN1c1cc(F)cc(Cn2ncc3cnc(Nc4cnn(CCO)c4)nc32)c1` [Example 63, 1-(3-Fluoro-5-((6-((1-(2-hydroxyethyl)-1H-pyrazol-4-yl)amino)-1H-pyrazolo[3,4-d]pyrimidin-1-yl)methyl)phenyl)piperazin-2-one], for which the IC50 at JAK2 was 1000 to 10000 nM; at JAK3, less than 100 nM.

As for `Cn1cc(Nc2ncc3cnn(Cc4c(F)ccc(N5CCNCC5=O)c4F)c3n2)cn1` [Example 76, 1-(2,4-Difluoro-3-((6-((1-methyl-1H-pyrazol-4-yl)amino)-1H-pyrazolo[3,4-d]pyrimidin-1-yl)methyl)phenyl)piperazin-2-one], the IC50 at JAK2 was 1000 to 10000 nM; at JAK3, less than 100 nM.

On to `Cn1cc(Nc2ncc3cnn(Cc4cc(N5CCNCC5)cc(F)c4F)c3n2)cn1` [Example 86, 1-(2,3-Difluoro-5-(piperazin-1-yl)benzyl)-N-(1-methyl-1H-pyrazol-4-yl)-1H-pyrazolo[3,4-d]pyrimidin-6-amine], for which the IC50 is 1000 to 10000 nM at JAK2 and less than 100 nM on JAK3.

In the case of `Cn1cc(Nc2ncc3cnn(Cc4cccc(N5CCOCC5O)c4)c3n2)cn1` (stereo not drawn) [Example 88, 4-(3-((6-((1-Methyl-1H-pyrazol-4-yl)amino)-1H-pyrazolo[3,4-d]pyrimidin-1-yl)methyl)phenyl)morpholin-3-ol], the IC50 is no less than 10000 nM on JAK2 and 100 to 1000 nM at JAK3.

`Cn1cc(Nc2ncc3cnn(Cc4cc(N5CCNCC5=O)cc(F)c4F)c3n2)cn1` [Example 71, 1-(3,4-Difluoro-5-((6-((1-methyl-1H-pyrazol-4-yl)amino)-1H-pyrazolo[3,4-d]pyrimidin-1-yl)methyl)phenyl)piperazin-2-one]: the IC50 at JAK2 is no less than 10000 nM; at JAK3 it was less than 100 nM.

Regarding `O=C1CNCCN1c1cccc(Cn2ncc3cnc(Nc4cnn(CCO)c4)nc32)c1F` [Example 55, 1-(2-Fluoro-3-((6-((1-(2-hydroxyethyl)-1H-pyrazol-4-yl)amino)-1H-pyrazolo[3,4-d]pyrimidin-1-yl)methyl)phenyl)piperazin-2-one], the IC50 at JAK2 was 1000 to 10000 nM; at JAK3, less than 100 nM.

Take `OCCn1cc(Nc2ncc3cnn(Cc4cccc(N5CCNCC5)c4)c3n2)cn1` [Example 47, 2-(4-((1-(3-(piperazin-1-yl)benzyl)-1H-pyrazolo[3,4-d]pyrimidin-6-yl)amino)-1H-pyrazol-1-yl)ethanol]: the IC50 on JAK2 was 1000 to 10000 nM; on JAK3 it was less than 100 nM.

`O=C1CNCCN1c1cc(F)c(F)c(Cn2ncc3cnc(Nc4cnn(CCO)c4)nc32)c1` [Example 72, 1-(3,4-Difluoro-5-((6-((1-(2-hydroxyethyl)-1H-pyrazol-4-yl)amino)-1H-pyrazolo[3,4-d]pyrimidin-1-yl)methyl)phenyl)piperazin-2-one]: the IC50 on JAK2 was no less than 10000 nM; at JAK3, less than 100 nM.

For the molecule `O=C1CNCCN1c1cccc(Cn2ncc3cnc(Nc4cnn(CCO)c4)nc32)c1` [Example 57, 1-(3-((6-((1-(2-Hydroxyethyl)-1H-pyrazol-4-yl)amino)-1H-pyrazolo[3,4-d]pyrimidin-1-yl)methyl)phenyl)piperazin-2-one], the values for the IC50 at JAK2 and on JAK3 were no less than 10000 nM and less than 100 nM, respectively.

In the case of `COC1CN(c2cccc(Cn3ncc4cnc(Nc5cnn(C)c5)nc43)c2)C1` [Example 65, 1-(3-(3-Methoxyazetidin-1-yl)benzyl)-N-(1-methyl-1H-pyrazol-4-yl)-1H-pyrazolo[3,4-d]pyrimidin-6-amine], the IC50 is no less than 10000 nM on JAK2 and less than 100 nM at JAK3.

As for `CN(C)CCCn1cc(Nc2ncc3cnn(Cc4c(F)ccc(N5CCOCC5=O)c4F)c3n2)cn1` [Example 75, 4-(3-((6-((1-(3-(Dimethylamino)propyl)-1H-pyrazol-4-yl)amino)-1H-pyrazolo[3,4-d]pyrimidin-1-yl)methyl)-2,4-difluorophenyl)morpholin-3-one], the IC50 at JAK2 was 1000 to 10000 nM; at JAK3, less than 100 nM.

With `Fc1cc(N2CCOCC2)c(F)c(Cn2ncc3cnc(Nc4cn[nH]c4)nc32)c1F` [Example 81, N-(1H-Pyrazol-4-yl)-1-(2,3,6-trifluoro-5-morpholinobenzyl)-1H-pyrazolo[3,4-d]pyrimidin-6-amine], the IC50 was 1000 to 10000 nM at JAK2 and less than 100 nM at JAK3.
